This assay has as its target T1, sGC (Rattus norvegicus, UniProt P20595).
T1 construct: Rat primary neurons were isolated from timed-pregnant female Sprague-Dawley (SD) rats; endogenous in cells; host or cells: rat primary neurons (Sprague-Dawley)
T1 sequence (P20595 1-619): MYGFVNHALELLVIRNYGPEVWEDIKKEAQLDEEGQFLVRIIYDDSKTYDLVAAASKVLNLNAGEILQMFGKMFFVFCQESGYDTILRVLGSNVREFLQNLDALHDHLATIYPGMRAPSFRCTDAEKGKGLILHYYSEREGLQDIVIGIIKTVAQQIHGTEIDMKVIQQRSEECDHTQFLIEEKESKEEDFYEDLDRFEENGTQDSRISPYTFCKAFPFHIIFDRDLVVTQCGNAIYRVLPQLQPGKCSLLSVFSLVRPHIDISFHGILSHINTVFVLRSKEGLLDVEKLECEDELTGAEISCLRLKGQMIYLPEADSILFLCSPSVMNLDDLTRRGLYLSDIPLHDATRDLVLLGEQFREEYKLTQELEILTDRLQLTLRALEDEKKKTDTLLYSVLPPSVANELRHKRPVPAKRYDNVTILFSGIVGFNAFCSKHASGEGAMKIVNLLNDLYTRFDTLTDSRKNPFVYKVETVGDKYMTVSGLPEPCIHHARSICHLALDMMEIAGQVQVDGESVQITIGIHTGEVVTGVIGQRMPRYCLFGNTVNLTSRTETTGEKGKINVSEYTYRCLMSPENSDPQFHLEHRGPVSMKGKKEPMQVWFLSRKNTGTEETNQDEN
T1 sequence (P19686 1-690 partner): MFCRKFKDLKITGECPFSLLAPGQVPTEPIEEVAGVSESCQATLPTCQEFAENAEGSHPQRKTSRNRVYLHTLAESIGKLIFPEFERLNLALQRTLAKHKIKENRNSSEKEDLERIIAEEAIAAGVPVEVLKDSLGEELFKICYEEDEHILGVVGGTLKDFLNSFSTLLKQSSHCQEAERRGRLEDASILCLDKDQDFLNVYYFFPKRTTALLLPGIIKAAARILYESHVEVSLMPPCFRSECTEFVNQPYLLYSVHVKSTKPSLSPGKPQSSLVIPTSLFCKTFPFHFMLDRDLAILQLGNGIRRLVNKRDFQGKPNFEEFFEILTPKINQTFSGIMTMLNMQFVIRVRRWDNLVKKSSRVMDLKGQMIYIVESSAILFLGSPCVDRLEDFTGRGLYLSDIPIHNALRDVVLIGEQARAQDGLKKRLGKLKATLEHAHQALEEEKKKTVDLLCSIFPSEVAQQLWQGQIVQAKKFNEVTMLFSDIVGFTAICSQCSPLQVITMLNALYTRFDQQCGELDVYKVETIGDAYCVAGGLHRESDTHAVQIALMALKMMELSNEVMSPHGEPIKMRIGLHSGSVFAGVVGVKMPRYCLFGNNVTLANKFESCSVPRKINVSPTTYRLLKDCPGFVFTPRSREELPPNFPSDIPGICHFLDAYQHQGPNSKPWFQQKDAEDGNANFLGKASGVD
In words: cGMP measurement in rat primary neurons (neuronal-based cell assay). As to conditions: rat primary neurons (Sprague-Dawley); 0.5 mM IBMX; test compound with fixed DETA (Diethylenetriamine NONOate); 20 min at 37° C.; cGMP by CatchPoint kit; read-out: sGC Neuron EC50. As for the experimental part: Example 2: cGMP Measurement in Rat Primary Neurons
Rat primary neurons were isolated from timed-pregnant female Sprague-Dawley (SD) rats, washed once with HBSS with calcium and magnesium and incubated with a solution containing 0.5 mM 3-isobutyl-1-methylxanthine (IBMX) in HBSS (80 μL/well) at 37° C. for 15 min. Next, a 5× stock […] of test compound with a fixed concentration of DETA (Diethylenetriamine NONOate) was added to the wells to make x nM concentration for test compound solutions and a 30 µM concentration for DETA solution, where x was 1 of the following final concentrations: 0.029, 0.114, 0.460, 1.83, 7.32, 29.29, 117.2, 468.8, 1875, 7500 and 30,000 nM. Then, the cells were incubated for 20 min at 37° C. At the end of incubation, 100 μL lysis buffer (Molecular Devices) was added to cells. CatchPoint™ Cyclic-GMP Fluorescent Assay Kit was used with Molecular Devices' ID3 multi-mode plate reading. Sample cGMP concentrations were extrapolated from standard curve using Softmax Pro 7 Software. A well-characterized, potent sGC stimulator was included in all assay runs and used as a positive control.
Test compound (“agonist”) concentrations vs extrapolated cGMP concentrations (“response”) were plotted and analyzed using GraphPad Prism version 9.4.1. Curve fit was used for each dataset; non-linear log(agonist) vs. response-variable slope (four parameters). The EC50 is interpolated from the curve fit and is defined as the concentration at which the compound elicits 50% of its maximal response. When the experiment is carried out more than two times, the geometric mean is reported, otherwise the arithmetic mean is shown. To increase the accuracy of the EC50 calculations, top and bottom parameters were constrained when consistent with the observed data in a given assay run. For instance, in assay runs where the cGMP response values in the absence of test article were consistent across plates, an average across all of these wells was used as a lower constraint in the calculations. In assay runs where the maximal cGMP responses were consistent with that of the positive control, a top constraint equal to the maximal cGMP response of the positive control was applied. If there was significant variability in cGMP response in no compound wells or variation in maximal responses across plates, no constraints were imposed.

As a reminder, the EC50 is the concentration at which the effect is half-maximal. As to `Cc1cc(F)c(Cc2nc(-c3nc(O)c(F)c(CF)n3)cn3ccnc23)cc1F` [Compound I-45, 2-(8-(2,5-difluoro-4-methylbenzyl)imidazo[1,2-a]pyrazin-6-yl)-5-fluoro-6-(fluoromethyl)pyrimidin-4-ol], the EC50 was in the range of 100 to 1000 nM.

These data come from patent US20260152504A1, “PYRIMIDINE SGC STIMULATORS” (Tisento Therapeutics Inc., priority 2022, published 2026).
